Measurements from paper PMC9656319, “Pharmacokinetics and Tissue Distribution of Coumarins from Tagetes lucida in an LPS-Induced Neuroinflammation Model” (Plants, 2022).

Key:
[1] = Pharmacokinetic study in plasma after oral hexanic extract of Tagetes lucida, healthy and LPS-damaged mice; type: in vivo, ICR mice; conditions: plasma; for Cmax / AUC(0-inf) / MRT / Tmax / half-life / AUC(0-t): ICR, mouse, po, 10 mg/kg; for Cmax / AUC(0-inf) / MRT / Tmax / half-life / AUC(0-t) / Cl/F: 10 mg/kg oral hexanic extract, mean ± SEM (n = 5); for Cmax: non-compartmental; for AUC(0-t): to 6 h
Method: The optimized HPLC-validated method for the quantification of coumarins present in the hexane extract of T. lucida was used to evaluate the concentration profiles over time in the plasma, brain, kidney, and spleen biological matrices after an oral administration of 10 mg/kg of the extract.
Blood samples were obtained from the retro-orbital sinus of mice and collected in heparinized tubes. Plasma was separated by centrifugation at 3500 rpm for 5 min and stored in new Eppendorf tubes at −70 °C, until further processing.
(§1) One hundred microliters of plasma and organs samples, spiked with calibration and QC concentration or samples from the pharmacokinetic study, were mixed with 300 µL of acetonitrile containing the IS at 10 µg/mL for protein precipitation, and vortexed for 3 min. Then, 200 µL of dichloromethane were added, for liquid–liquid extraction of the bioactive compounds, and vortexed for 5 min. The mixture was centrifuged at 14,000 rpm for 10 min, and the extracted organic layers were placed in new tubes, until completely dry at room temperature. For quantitative analysis, samples were resuspended in 100 µL of methanol, transferred to sampling vials, and injected into the chromatographic system, described below.
A pharmacokinetic study was carried out in sixty mice, divided in six subgroups, according to sample collection times. An acute inflammation process by the intraperitoneal (i.p.) administration of LPS at 2 mg/kg was induced in half of the mice per group, while the other half received an i.p. injection of saline solution. Ten min after the damage was induced, the mice were administered with an oral dose of 10 mg/kg of the bioactive fraction dissolved in a 1% Tween-20 aqueous solution. Blood and tissue samples were obtained and processed at 0, 0.25, 0.75, 1.5, 2, 4, and 6 h post-dosing, as indicated in the “Samples collection” and “Plasma and tissue samples processing” sections.
Pharmacokinetic parameters of PE, SC, DF, HR, and PU in plasma were calculated by PKSolver software.

[2] = Tissue distribution in the brain after oral hexanic extract of Tagetes lucida, healthy and LPS-administrated mice; type: in vivo, ICR mice; conditions: after the initial absorption process
Method: After blood sampling, the mice were sacrificed in a chamber with chloroform by an overdose of anesthesia. The brain, kidney, and spleen were quickly removed and rinsed with saline solution, fresh weight was recorded, and immediately placed on ice. Subsequently, the organs were freeze-dried, grounded, and weighted. The lyophilized organs were individually suspended in methanol in a 1:1 volume: dry weight ratio for 24 h, then sonicated for 5 min and centrifuged at 14,000 rpm for 7 min. The supernatants were recovered in clean tubes and stored at −70 °C until their use.
as §1
A pharmacokinetic study was carried out in sixty mice, divided in six subgroups, according to sample collection times. An acute inflammation process by the intraperitoneal (i.p.) administration of LPS at 2 mg/kg was induced in half of the mice per group, while the other half received an i.p. injection of saline solution. Ten min after the damage was induced, the mice were administered with an oral dose of 10 mg/kg of the bioactive fraction dissolved in a 1% Tween-20 aqueous solution. […]
To evaluate the distribution in the tissues, bioactive coumarins were quantified in the lyophilized organs, and concentrations were adjusted to the volumes of liquid obtained by the difference between the dry and fresh weights of each tissue to simulate a distribution approximation of the compounds by tissue system.

[3] = Stability of the analytes in spiked plasma, brain, kidney and spleen matrices (autosampler, long-term, freeze-thaw); type: physicochemical, mice; conditions: for Stability Autosampler RE (%): processed samples in autosampler vials 24 h room temperature; for Stability Freeze-Thaw RE (%): three cycles (−4 °C to 25 °C); for Stability Long-Term RE (%): −70 °C for 30 days
Method: The stability of the compounds obtained from each enriched matrices at the QC concentrations was evaluated under different conditions that covered the processing, handling, and storage phases that could be developed throughout the study.
Individual stock solutions of PE, SC, DF, HR, PU, and rutin (IS) were prepared separately in methanol (1 mg/mL) and stored at −4 °C until use. From the stocks, a working solution in methanol was prepared at a concentration of 200 µg/mL of each coumarin. Blank plasma or organs supernatant samples (80 µL) were spiked with 20 µL of serial dilutions of working solution to obtain calibration curves ranging between 0.156, 0.312, 0.625, 1.25, 2.5, 5, 10, 20, and 40 µg/mL of each coumarin. Quality control (QC) samples were prepared at three levels of 0.3 (low), 3 (medium), and 30 (high) µg/mL for each coumarin.
The stability of the analytes in plasma, brain, kidneys, and spleen was evaluated by the analyzed concentrations of QC subjected to three different conditions. Short-term stability was determined by analysis of samples processed in the autosampler vials at 24 h at room temperature. Long-term stability was tested on samples stored at −70 °C for 30 days. Freeze-thaw stability was determined after three cycles (−4 °C to 25 °C) on three consecutive days.

[4] = parameters: method as in PMID 22465507; conditions: rats, distribution of SC in different organs; cited from earlier work

## COc1cc2ccc(=O)oc2cc1OC [SC, scoparone]
[1]; LPS-damaged ICR mice (LPS 2 mg/kg i.p.)
  Cmax: 1.28 ± 0.11 µg/mL
[1]; LPS-damaged ICR mice
  AUC(0-inf): 2.78 ± 0.21 µg·h/mL
  MRT: 2.26 ± 0.17 h
  Tmax: 0.7 ± 0.34 h
  half-life: 0.65 ± 0.06 h
  AUC(0-t): 2.77 ± 0.21 µg·h/mL
  Cl/F: 36.52 ± 2.68 (mg/kg)/(μg/mL)/h
[1]; healthy ICR mice
  AUC(0-inf): 4.03 ± 0.63 µg·h/mL
  MRT: 4.68 ± 1.16 h
  Tmax: 1.25 ± 0.25 h
  half-life: 2.88 ± 0.83 h
  Cmax: 0.97 ± 0.1 µg/mL
  AUC(0-t): 2.87 ± 0.09 µg·h/mL
  Cl/F: 26.64 ± 3.00 (mg/kg)/(μg/mL)/h
[1]; LPS-treated mice, Figure 3b, 3c
  pharmacokinetic characteristics in words: fast distribution and subsequent elimination
[2]
  time at which the highest concentration in the brain tissue is reached: 15 min
[3]; brain, nominal 0.3 µg/mL
  Stability Autosampler RE (%): -2.15%
  Stability Freeze-Thaw RE (%): -1.98%
  Stability Long-Term RE (%): -0.19%
[3]; brain, nominal 3.0 µg/mL
  Stability Autosampler RE (%): 0.37%
  Stability Freeze-Thaw RE (%): -3.09%
  Stability Long-Term RE (%): -0.94%
[3]; brain, nominal 30.0 µg/mL
  Stability Autosampler RE (%): 4.78%
  Stability Freeze-Thaw RE (%): -2.00%
  Stability Long-Term RE (%): -4.75%
[3]; kidney, nominal 0.3 µg/mL
  Stability Autosampler RE (%): 7.01%
  Stability Freeze-Thaw RE (%): 2.62%
  Stability Long-Term RE (%): 3.92%
[3]; kidney, nominal 3.0 µg/mL
  Stability Autosampler RE (%): 5.72%
  Stability Freeze-Thaw RE (%): 1.51%
  Stability Long-Term RE (%): 2.63%
[3]; kidney, nominal 30.0 µg/mL
  Stability Autosampler RE (%): -0.35%
  Stability Freeze-Thaw RE (%): 0.49%
  Stability Long-Term RE (%): 4.36%
[3]; plasma, nominal 0.3 µg/mL
  Stability Autosampler RE (%): 10.18%
  Stability Freeze-Thaw RE (%): -14.02%
  Stability Long-Term RE (%): -3.50%
[3]; plasma, nominal 3.0 µg/mL
  Stability Autosampler RE (%): 8.27%
  Stability Freeze-Thaw RE (%): 2.70%
  Stability Long-Term RE (%): -14.30%
[3]; plasma, nominal 30.0 µg/mL
  Stability Autosampler RE (%): 4.74%
  Stability Freeze-Thaw RE (%): -0.10%
  Stability Long-Term RE (%): -8.41%
[3]; spleen, nominal 0.3 µg/mL
  Stability Autosampler RE (%): -7.70%
  Stability Freeze-Thaw RE (%): -9.57%
  Stability Long-Term RE (%): -9.67%
[3]; spleen, nominal 3.0 µg/mL
  Stability Autosampler RE (%): -6.71%
  Stability Freeze-Thaw RE (%): -2.65%
  Stability Long-Term RE (%): 2.22%
[3]; spleen, nominal 30.0 µg/mL
  Stability Autosampler RE (%): -0.99%
  Stability Freeze-Thaw RE (%): -4.22%
  Stability Long-Term RE (%): -2.12%
[4]
  quantification of the coumarin inside the brain: not possible to quantify
